Test results taken from the supplement of paper PMC11061612.

Legend:
Test in all cases: combination Emax (second highest fraction inhibited in the dose matrix, 72 h); higher = more inhibition; extreme values may be limits of the assay
TGW (Neuroblastoma) = tested on: TGW (Neuroblastoma)
Summary of the method: (§1)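 Cell lines grown in DMEM/F12 or RPMI with 10% FBS were plated in 1536-well plates and held 24 hours at 37°C, 5% CO2 before 72 hours of exposure to two-drug dose matrices, with DMSO typically at 0.2%. CellTiter-Glo 2.0 luminescence gave viability, which was converted to inhibition. Vehicle wells were set to 0 and blank wells to 1. Combination Emax is the second-highest inhibition in the matrix, and Bliss excess is the observed combination effect minus the expected EA + EB − EA·EB, where EA and EB are the single-agent effects.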

[1] = tested on: SW13 (Other Solid Carcinomas)
Summary of the method: as §1

[2] = tested on: Hs-766T (Pancreatic Carcinoma)
Summary of the method: as §1

ACHN (Kidney Carcinoma) = tested on: ACHN (Kidney Carcinoma)
Summary of the method: as §1

[3] = tested on: KYSE-450 (Esophageal Squamous Cell Carcinoma)
Summary of the method: as §1

EW-24 (Ewing's Sarcoma) = tested on: EW-24 (Ewing's Sarcoma)
Summary of the method: as §1

[4] = tested on: NCI-H358 (Lung Adenocarcinoma)
Summary of the method: as §1

[5] = tested on: Ca9-22 (Head and Neck Carcinoma)
Summary of the method: as §1

[6] = tested on: LU-65 (Non-Small Cell Lung Carcinoma)
Summary of the method: as §1

TK10 (Kidney Carcinoma) = tested on: TK10 (Kidney Carcinoma)
Summary of the method: as §1

[7] = tested on: EFM-19 (Breast Carcinoma)
Summary of the method: as §1

Structure (SMILES) | combination Emax (TGW (Neuroblastoma)) | combination Emax [1] | combination Emax [2] | combination Emax (ACHN (Kidney Carcinoma)) | combination Emax [3] | combination Emax (EW-24 (Ewing's Sarcoma)) | combination Emax [4] | combination Emax [5] | combination Emax [6] | combination Emax (TK10 (Kidney Carcinoma)) | combination Emax [7]
O=C(c1cc(Cc2n[nH]c(=O)c3ccccc23)ccc1F)N1CCN(C(=O)C2CC2)CC1 [Olaparib] + COc1nnc2ccc(N3CCC(c4ccc(OCCN5CCN(C)C(=O)[C@H]5C)cc4)CC3)nn12 [AZD5153] (first compound max 10 µM, 7x7, partner max 1 µM) | 0.476 | 0.309 | 0.396 | 0.539 | 0.235 | 0.639 | 0.295 | 0.625 | 0.49 | 0.482 | 0.367
Cc1nc(-c2cn3c(n2)-c2ccc(-c4cnn(C(C)(C)C(N)=O)c4)cc2OCC3)n(C(C)C)n1 [Taselisib] + O=C(Nc1ccc2[nH]nc(-c3ccncc3)c2c1)[C@@H]1CCN(CC(=O)N2CCN(c3ccc(-c4ncccn4)cc3)CC2)C1 [SCH772984] (first compound max 10 µM, 7x7, partner max 5 µM) | 0.516 | 0.894 | 0.676 | 0.692 | 0.725 | 0.602 | 0.798 | 0.938 | 0.991 | 0.773 | 0.693
CN(CCO)CC[C@H](CSc1ccccc1)Nc1ccc(S(=O)(=O)NC(=O)c2ccc(N3CCC([C@@H](O)c4ccccc4-c4ccc(Cl)cc4)CC3)cc2)cc1S(=O)(=O)C(F)(F)F [AZD4320] + CS(=O)(=O)CCNCc1ccc(-c2ccc3ncnc(Nc4ccc(OCc5cccc(F)c5)c(Cl)c4)c3c2)o1 [Lapatinib] (first compound max 1 µM, 7x7, partner max 10 µM) | 1 | 0.804 | 0.435 | 0.466 | 0.41 | 0.931 | 0.629 | 0.974 | 0.368 | 0.92 | 0.846
C[C@@H]1COCCN1c1cc(C2([S@](C)(=N)=O)CC2)nc(-c2ccnc3[nH]ccc23)n1 [AZD6738] + Nc1ccn([C@@H]2O[C@H](CO)[C@@H](O)C2(F)F)c(=O)n1 [Gemcitabine] (first compound max 10 µM, 7x7, partner max 0.3 µM) | 0.897 | 0.932 | 0.505 | 0.875 | 0.862 | 0.8 | 0.733 | 0.923 | 0.848 |  | 0.795
C[C@@H](Nc1cc(F)cc(F)c1)c1cc(C(=O)N(C)C)cc2c(=O)cc(N3CCOCC3)oc12 [AZD8186] + CC(=O)c1c(C)c2cnc(Nc3ccc(N4CCNCC4)cn3)nc2n(C2CCCC2)c1=O [Palbociclib] (first compound max 10 µM, 7x7, partner max 10 µM) | 0.32 | 0.316 | 0.441 | 0.661 | 0.378 | 0.563 | 0.398 | 0.368 | 0.312 | 0.556 | 0.449
C[C@@H](Oc1cc(-c2cnn(C3CCNCC3)c2)cnc1N)c1c(Cl)ccc(F)c1Cl [Crizotinib] + Cn1cnc2c(F)c(Nc3ccc(Br)cc3Cl)c(C(=O)NOCCO)cc21 [Selumetinib] (first compound max 10 µM, 7x7, partner max 10 µM) | 0.69 | 0.522 | 0.516 | 0.572 | 0.381 | 0.545 | 0.587 | 0.542 | 0.974 | 0.367 | 0.224
C[C@@H]1COCCN1c1cc(C2([S@](C)(=N)=O)CC2)nc(-c2ccnc3[nH]ccc23)n1 [AZD6738] + C1CC(C1)(C(=O)[O-])C(=O)[O-].N.N.[Pt+2] [Carboplatin] (first compound max 10 µM, 7x7, partner max 10 µM) | 0.574 | 0.344 | 0.442 | 0.819 | 0.312 | 0.703 | 0.505 | 0.895 | 0.703 | 0.634 | 0.211
O=C(c1cc(Cc2n[nH]c(=O)c3ccccc23)ccc1F)N1CCN(C(=O)C2CC2)CC1 [Olaparib] + Cc1c2c(nn1C)CSCc1cc(n(C)n1)CSc1cc(c3ccccc3c1)OCCCc1c(C(=O)O)n(C)c3c-2c(Cl)ccc13 [AZD5991] (first compound max 10 µM, 7x7, partner max 1 µM) | 0.192 | 0.763 | 0.0824 | 0.177 | 0.0895 | 0.193 | 0.197 | 0.212 | 0.2 | 0.0994 | 0.272
C=CCn1c(=O)c2cnc(Nc3ccc(N4CCN(C)CC4)cc3)nc2n1-c1cccc(C(C)(C)O)n1 [AZD1775] + CCc1c2c(nc3ccc(O)cc13)-c1cc3c(c(=O)n1C2)COC(=O)[C@]3(O)CC [SN-38] (first compound max 1 µM, partner max 0.3 µM) | 0.728 | 0.964 | 0.537 | 0.946 | 0.951 | 0.782 | 0.687 | 0.965 | 0.944 | 0.612 | 0.743
O=C(c1cc(Cc2n[nH]c(=O)c3ccccc23)ccc1F)N1CCN(C(=O)C2CC2)CC1 [Olaparib] + CC1(C)CCC(CN2CCN(c3ccc(C(=O)NS(=O)(=O)c4ccc(NCC5CCOCC5)c([N+](=O)[O-])c4)c(Oc4cnc5[nH]ccc5c4)c3)CC2)=C(c2ccc(Cl)cc2)C1 [Venetoclax] (first compound max 10 µM, 7x7, partner max 1 µM) | 0.429 | 0.213 | 0.135 | 0.143 | 0.0027 | 0.195 | 0.133 | 0.229 | 0.164 | 0.0731 | 0.194
CS(=O)(=O)CCNCc1ccc(-c2ccc3ncnc(Nc4ccc(OCc5cccc(F)c5)c(Cl)c4)c3c2)o1 [Lapatinib] + Cn1cnc2c(F)c(Nc3ccc(Br)cc3Cl)c(C(=O)NOCCO)cc21 [Selumetinib] (first compound max 10 µM, 7x7, partner max 10 µM) | 0.207 | 0.687 | 0.582 | 0.577 | 0.41 | 0.222 | 0.621 | 0.845 | 0.701 | 0.605 | 0.289
C[C@@H](Oc1cc(-c2cnn(C3CCNCC3)c2)cnc1N)c1c(Cl)ccc(F)c1Cl [Crizotinib] + CC1=C(C(=CC=C1)Cl)NC(=O)C2=CN=C(S2)NC3=CC(=NC(=N3)C)N4CCN(CC4)CCO [Dasatinib] (first compound max 10 µM, 7x7, partner max 2 µM) | 0.677 | 0.736 | 0.533 | 0.756 | 0.567 | 0.738 | 0.607 | 0.952 | 0.852 | 0.826 | 0.636
Cc1c2c(nn1C)CSCc1cc(n(C)n1)CSc1cc(c3ccccc3c1)OCCCc1c(C(=O)O)n(C)c3c-2c(Cl)ccc13 [AZD5991] + CS(=O)(=O)CCNCc1ccc(-c2ccc3ncnc(Nc4ccc(OCc5cccc(F)c5)c(Cl)c4)c3c2)o1 [Lapatinib] (first compound max 1 µM, 7x7, partner max 10 µM) | 0.312 | 0.973 | 0.188 | 0.481 | 0.541 | 0.32 | 0.478 | 0.933 | 0.332 | 0.56 | 0.364
Cc1c2c(nn1C)CSCc1cc(n(C)n1)CSc1cc(c3ccccc3c1)OCCCc1c(C(=O)O)n(C)c3c-2c(Cl)ccc13 [AZD5991] + Nc1ccn([C@@H]2O[C@H](CO)[C@@H](O)C2(F)F)c(=O)n1 [Gemcitabine] (first compound max 1 µM, 7x7, partner max 0.3 µM) | 0.621 | 0.981 | 0.332 | 0.744 | 0.459 | 0.672 | 0.381 | 0.68 | 0.627 | 0.346 | 0.573
O=C(c1cc(Cc2n[nH]c(=O)c3ccccc23)ccc1F)N1CCN(C(=O)C2CC2)CC1 [Olaparib] + CN(CC[C@H](CSC1=CC=CC=C1)NC2=C(C=C(C=C2)S(=O)(=O)NC(=O)C3=CC=C(C=C3)N4CCC(CC4)[C@H](C5=CC=CC=C5C6=CC=C(C=C6)Cl)O)S(=O)(=O)C(F)(F)F)CCO [AZD4320] (first compound max 10 µM, 7x7, partner max 1 µM) | 0.925 | 0.184 | 0.219 | 0.154 | 0.0781 | 0.606 | 0.182 | 0.349 | 0.194 | 0.128 | 0.428
C=CCn1c(=O)c2cnc(Nc3ccc(N4CCN(C)CC4)cc3)nc2n1-c1cccc(C(C)(C)O)n1 [AZD1775] + Nc1ccn([C@@H]2O[C@H](CO)[C@@H](O)C2(F)F)c(=O)n1 [Gemcitabine] (first compound max 1 µM, partner max 0.3 µM) | 0.809 | 0.928 | 0.42 | 0.853 | 0.875 | 0.658 | 0.516 | 0.834 | 0.848 | 0.456 | 0.614
Cc1c2c(nn1C)CSCc1cc(n(C)n1)CSc1cc(c3ccccc3c1)OCCCc1c(C(=O)O)n(C)c3c-2c(Cl)ccc13 [AZD5991] + CC(=O)O[C@H]1C(=O)[C@@]2(C)[C@H]([C@H](OC(=O)c3ccccc3)[C@]3(O)C[C@H](OC(=O)[C@H](O)[C@@H](NC(=O)c4ccccc4)c4ccccc4)C(C)=C1C3(C)C)[C@]1(OC(C)=O)CO[C@@H]1C[C@@H]2O [Paclitaxel] (first compound max 1 µM, 7x7, partner max 3 µM) | 0.955 | 1 | 0.304 | 0.604 | 0.847 | 0.734 | 0.818 | 0.963 | 0.752 | 0.519 | 0.931
CC1(C)CCC(CN2CCN(c3ccc(C(=O)NS(=O)(=O)c4ccc(NCC5CCOCC5)c([N+](=O)[O-])c4)c(Oc4cnc5[nH]ccc5c4)c3)CC2)=C(c2ccc(Cl)cc2)C1 [Venetoclax] + CS(=O)(=O)CCNCc1ccc(-c2ccc3ncnc(Nc4ccc(OCc5cccc(F)c5)c(Cl)c4)c3c2)o1 [Lapatinib] (first compound max 1 µM, 7x7, partner max 10 µM) | 0.459 | 0.549 | 0.208 | 0.52 | 0.34 | 0.245 | 0.431 | 0.777 | 0.207 | 0.516 | 0.207
